US8288371B2, “Ortho pyrrolidine, benzyl-substituted heterocycle CCR1 antagonists for autoimmune diseases and inflammation” (Pharmacopeia, LLC, priority 2007, dated 2012)

biological target: T1, human CCR1 (Homo sapiens, UniProt P32246); assay: CCR1 binding protocol (SPA, [125I]-MIP-1α displacement); conditions: cell membrane expressing human CCR1, 0.1 nM [125I]-MIP-1α, 4 hours at ambient temperature; read-out: Relative potency (IC50)
T1 sequence (P32246 1-355): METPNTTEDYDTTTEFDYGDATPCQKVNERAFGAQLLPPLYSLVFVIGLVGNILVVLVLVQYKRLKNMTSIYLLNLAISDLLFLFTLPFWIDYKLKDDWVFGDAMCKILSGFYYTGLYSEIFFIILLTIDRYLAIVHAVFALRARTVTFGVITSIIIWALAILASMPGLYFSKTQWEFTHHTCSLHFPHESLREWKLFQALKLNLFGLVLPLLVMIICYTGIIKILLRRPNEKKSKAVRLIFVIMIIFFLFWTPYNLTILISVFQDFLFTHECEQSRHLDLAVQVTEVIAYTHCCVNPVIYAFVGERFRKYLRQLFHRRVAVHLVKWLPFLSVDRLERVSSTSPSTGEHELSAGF
In short: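 Human CCR1 membranes (0.5 μg/well) on SPA beads were incubated with compound and 0.1 nM [125I]-MIP-1α (final) for 4 h at ambient temperature. Buffer was Tris pH 7.4 with NaCl, KCl, MnCl and 0.1% BSA. IC50 came from ½-log compound dilutions (10 mM top DMSO stock) by displacement of bound radioligand.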

SMILES	IC50
Cc1noc(C)c1NC(=O)N1CCC[C@@H]1c1nnc(CO)n1Cc1ccc(Cl)cc1 [Compound 323]	50 to 500 nM
Cc1noc(C)c1NC(=O)N1CCC[C@@H]1c1nnc(C)n1C1(c2ccc(Cl)cc2)CC1 [Compound 324]	50 to 500 nM
Cc1nnc([C@H]2CCCN2C(=O)Nc2ccc(Cl)cc2F)n1C1(c2ccc(Cl)cc2)CC1 [Compound 325]	50 to 500 nM
Cc1nc(C)c(NC(=O)N2CCC[C@@H]2c2nnc(C)n2Cc2ccc(Cl)cc2)c(C)n1 [Compound 326]	< 50 nM
Cc1nnc([C@H]2CCCN2C(=O)Nc2ccc3c(c2)N(C)C(=O)CO3)n1C1(c2ccc(Cl)cc2)CC1 [Compound 327]	50 to 500 nM
Cc1nnc([C@H]2CCCN2C(=O)N[C@H]2CCOc3cc(C(F)(F)F)ccc32)n1C1(c2ccc(Cl)cc2)CC1 [Compound 328]	50 to 500 nM
Cc1nnc([C@H]2CCCN2C(=O)NC2(c3ccccc3)CC2)n1C1(c2ccc(Cl)cc2)CC1 [Compound 329]	50 to 500 nM
Cc1nnc([C@H]2CCCN2C(=O)Nc2ccc(S(C)(=O)=O)cc2)n1Cc1ccc(Cl)cc1 [Compound 330]	50 to 500 nM
Cc1nnc([C@H]2CCCN2C(=O)Nc2ccc(S(C)(=O)=O)cc2Cl)n1Cc1ccc(Cl)cc1 [Compound 331]	50 to 500 nM
Cc1nnc([C@H]2CCCN2C(=O)Nc2cc(C(N)=O)ccc2Cl)n1Cc1ccc(Cl)cc1 [Compound 332]	50 to 500 nM
Cc1nnc([C@H]2CCCN2C(=O)NC2CCOCC2)n1Cc1ccc(Cl)cc1 [Compound 333]	500 to 5000 nM
Cc1nnc([C@H]2CCCN2C(=O)Nc2cccc(S(C)(=O)=O)c2)n1Cc1ccc(Cl)cc1 [Compound 334]	500 to 5000 nM
Cc1nnc([C@H]2CCCN2C(=O)Nc2cc(C(=O)O)ccc2C(F)(F)F)n1Cc1ccc(Cl)cc1 [Compound 335]	500 to 5000 nM
Cc1nnc([C@H]2CCCN2C(=O)N[C@H]2CCOc3cc(C(F)(F)F)ccc32)n1Cc1cccc(Cl)c1 [Compound 336]	500 to 5000 nM
Cc1nnc([C@H]2CCCN2C(=O)N[C@H]2CCOc3cc(C(F)(F)F)ccc32)n1[C@@H](C)c1ccc(Cl)cc1 [Compound 337]	50 to 500 nM
N#Cc1ccc2c(c1)OCC[C@@H]2NC(=O)N1CCC[C@@H]1c1nnc(CO)n1Cc1ccc(Cl)cc1 [Compound 338]	< 50 nM
Cc1nnc([C@H]2CCCN2C(=O)Nc2ccc3c(c2)OCC(=O)N3C)n1Cc1ccc(Cl)cc1 [Compound 339]	500 to 5000 nM
N#Cc1ccc2c(c1)OCC[C@H]2NC(=O)N1CCC[C@@H]1c1nnc(CO)n1Cc1ccc(Cl)cc1 [Compound 340]	< 50 nM
Cc1cc(NC(=O)N2CCC[C@@H]2c2nnc(C)n2Cc2ccc(Cl)cc2)n(-c2ccccc2)n1 [Compound 341]	< 50 nM
Cc1nnc([C@H]2CCCN2C(=O)Nc2ccc(Cl)cc2F)n1[C@@H](C)c1ccc(Cl)cc1 [Compound 342]	500 to 5000 nM
Cc1nnc([C@H]2CCCN2C(=O)N[C@@H](C)C(C)C)n1Cc1ccc(Cl)cc1 [Compound 343]	50 to 500 nM
Cc1nnc([C@H]2CCCN2C(=O)Nc2ncc(Cl)cn2)n1Cc1ccc(Cl)cc1 [Compound 344]	500 to 5000 nM
Cc1nnc([C@H]2CCCN2/C(=N\C#N)N[C@H]2CCOc3cc(C#N)ccc32)n1Cc1ccc(Cl)cc1 [Compound 345]	50 to 500 nM
Cc1cc(C)c(C(=O)O)cc1NC(=O)N1CCC[C@@H]1c1nnc(C)n1Cc1ccc(Cl)cc1 [Compound 346]	50 to 500 nM
Cc1nnc([C@H]2CCCN2C(=O)Nc2cc(C(=O)N(C)C)ccc2Cl)n1Cc1ccc(Cl)cc1 [Compound 347]	< 50 nM
Cc1ncncc1NC(=O)N1CCC[C@@H]1c1nnc(C)n1Cc1ccc(Cl)cc1 [Compound 348]	< 50 nM
Cc1nnc([C@H]2CCCN2C(=O)Nc2ccc(Cl)cc2F)n1[C@H](C)c1ccc(Cl)cc1 [Compound 349]	50 to 500 nM
Cc1noc(C)c1NC(=O)N1CCC[C@@H]1c1nnc(C)n1Cc1ccc(Cl)nc1 [Compound 366]	50 to 500 nM

Now from value to compound:

IC50	SMILES
< 50 nM	Cc1nc(Cl)ncc1NC(=O)N1CCC[C@@H]1c1nnc(C)n1Cc1ccc(Cl)cc1 [Compound 350]
50 to 500 nM	Cc1nnc([C@H]2CCCN2C(=O)NC2(c3ccccc3)CC2)n1[C@@H](C)c1ccc(Cl)cc1 [Compound 351]
50 to 500 nM	Cc1nnc([C@H]2CCCN2C(=O)Nc2ccc3c(c2)N(C)C(=O)CO3)n1[C@H](C)c1ccc(Cl)cc1 [Compound 352]
50 to 500 nM	Cc1nnc([C@H]2CCCN2C(=O)N[C@H]2CCOc3cc(C(F)(F)F)ccc32)n1[C@H](C)c1ccc(Cl)cc1 [Compound 353]
500 to 5000 nM	Cc1nnc([C@H]2CCCN2C(=O)Nc2cccc(S(N)(=O)=O)c2)n1Cc1ccc(Cl)cc1 [Compound 354]
500 to 5000 nM	Cc1nnc([C@H]2CCCN2C(=O)Nc2ccc(S(N)(=O)=O)cc2)n1Cc1ccc(Cl)cc1 [Compound 355]
< 50 nM	Cc1nnc([C@H]2CCCN2C(=O)Nc2cc(-c3ccccc3)nn2C)n1Cc1ccc(Cl)cc1 [Compound 356]
50 to 500 nM	Cc1nnc([C@H]2CCCN2C(=O)NC2(c3ccccc3)CC2)n1[C@H](C)c1ccc(Cl)cc1 [Compound 357]
50 to 500 nM	Cc1nnc([C@H]2CCCN2C(=O)Nc2cc(C(N)=O)ccc2C(F)(F)F)n1Cc1ccc(Cl)cc1 [Compound 358]
< 50 nM	CNC(=O)c1ccc(C(F)(F)F)c(NC(=O)N2CCC[C@@H]2c2nnc(C)n2Cc2ccc(Cl)cc2)c1 [Compound 359]
50 to 500 nM	CNC(=O)c1ccc(C)c(N/C(=N/C#N)N2CCC[C@@H]2c2nnc(C)n2Cc2ccc(Cl)cc2)c1 [Compound 360]
< 50 nM	Cc1cc(C)c(S(C)(=O)=O)cc1NC(=O)N1CCC[C@@H]1c1nnc(C)n1Cc1ccc(Cl)cc1 [Compound 361]
< 50 nM	Cc1ccc(NC(=O)N2CCC[C@@H]2c2nnc(C)n2Cc2ccc(Cl)cc2)c(C)n1 [Compound 362]
50 to 500 nM	Cc1cc(C)c(C(N)=O)cc1NC(=O)N1CCC[C@@H]1c1nnc(C)n1Cc1ccc(Cl)cc1 [Compound 363]
500 to 5000 nM	Cc1nnc([C@H]2CCCN2C(=O)Nc2ccc(Cl)cc2F)n1Cc1ccc(Cl)nc1 [Compound 364]
50 to 500 nM	Cc1noc(C)c1NC(=O)N1CCC[C@@H]1c1nnc(C)n1[C@H](C)c1ccc(Cl)cc1 [Compound 365]
50 to 500 nM	Cc1nnc([C@H]2CCCN2C(=O)Nc2ccc(Cl)cc2F)n1Cc1ccc(F)cc1 [Compound 367]
< 50 nM	Cc1nnc([C@H]2CCCN2C(=O)N[C@@H]2CCS(=O)(=O)c3ccc(Cl)cc32)n1Cc1ccc(Cl)cc1 [Compound 368]
< 50 nM	Cc1nnc([C@H]2CCCN2C(=O)N[C@H]2CCS(=O)(=O)c3ccc(Cl)cc32)n1Cc1ccc(Cl)cc1 [Compound 369]
< 50 nM	O=C(N[C@@H]1CCS(=O)(=O)c2ccc(Cl)cc21)N1CCC[C@@H]1c1nnc(CO)n1Cc1ccc(Cl)cc1 [Compound 370]

IC50	SMILES
50 to 500 nM	O=C(N[C@H]1CCS(=O)(=O)c2ccc(Cl)cc21)N1CCC[C@@H]1c1nnc(CO)n1Cc1ccc(Cl)cc1 [Compound 371]
500 to 5000 nM	N#C/N=C(\Nc1ccc(C(F)(F)F)cc1)N1CCC[C@@H]1c1nnc(CO)n1Cc1ccc(Cl)cc1 [Compound 372]
50 to 500 nM	N#C/N=C(\N[C@H]1CCOc2cc(C(F)(F)F)ccc21)N1CCC[C@@H]1c1nnc(CO)n1Cc1ccc(Cl)cc1 [Compound 373]
500 to 5000 nM	N#C/N=C(\NC1(c2ccccc2)CC1)N1CCC[C@@H]1c1nnc(CO)n1Cc1ccc(Cl)cc1 [Compound 374]
50 to 500 nM	Cc1cc(C)c(C(=O)N(C)C)cc1NC(=O)N1CCC[C@@H]1c1nnc(C)n1Cc1ccc(Cl)cc1 [Compound 375]
50 to 500 nM	Cc1nnc([C@H]2CCCN2C(=O)Nc2cc(S(C)(=O)=O)ccc2F)n1Cc1ccc(Cl)cc1 [Compound 376]
50 to 500 nM	Cc1nnc([C@H]2CCCN2/C(=N/C#N)NCc2ccc(C(F)(F)F)cc2)n1Cc1ccc(Cl)cc1 [Compound 377]
50 to 500 nM	Cc1nnc([C@H]2CCCN2C(=O)Nc2ccccc2S(C)(=O)=O)n1Cc1ccc(Cl)cc1 [Compound 378]
50 to 500 nM	Cc1nnc([C@H]2CCCN2C(=O)Nc2cc(C(=O)N(C)C)ccc2C(F)(F)F)n1Cc1ccc(Cl)cc1 [Compound 379]
< 50 nM	CNC(=O)c1cc(NC(=O)N2CCC[C@@H]2c2nnc(C)n2Cc2ccc(Cl)cc2)c(C)cc1C [Compound 380]
500 to 5000 nM	Cc1nnc([C@H]2CCCN2C(=O)Nc2ccc3c(c2)N(C)C(=O)CO3)n1Cc1ccc(Cl)nc1 [Compound 381]
50 to 500 nM	Cc1nnc([C@H]2CCCN2C(=O)N[C@H]2CCOc3cc(C(F)(F)F)ccc32)n1Cc1ccc(Cl)nc1 [Compound 382]
50 to 500 nM	Cc1nnc([C@H]2CCCN2C(=O)NC2(c3ccccc3)CC2)n1Cc1ccc(Cl)nc1 [Compound 383]
50 to 500 nM	Cc1nnc([C@H]2CCCN2C(=O)Nc2ccc(Cl)cc2F)n1Cc1ccc(Cl)c(Cl)c1 [Compound 384]
50 to 500 nM	Cc1noc(C)c1NC(=O)N1CCC[C@@H]1c1nnc(C)n1Cc1ccc(F)cc1 [Compound 385]
50 to 500 nM	Cc1nnc([C@H]2CCCN2C(=O)Nc2ccc3c(c2)N(C)C(=O)CO3)n1Cc1ccc(F)cc1 [Compound 386]
< 50 nM	Cc1nnc([C@H]2C[C@@H](O)CN2C(=O)NC2(c3ccc(C(F)(F)F)cc3)CC2)n1Cc1ccc(Cl)cc1 [Compound 387]
50 to 500 nM	Cc1nnc([C@H]2C[C@H](O)CN2C(=O)Nc2ccc(C(F)(F)F)cc2)n1Cc1ccc(Cl)cc1 [Compound 388]
50 to 500 nM	Cc1nnc([C@H]2C[C@@H](O)CN2C(=O)NC(c2ccccc2)c2ccccc2)n1Cc1ccc(Cl)cc1 [Compound 389]
